# Test results taken from US20220175768A1, “FGFR TYROSINE KINASE INHIBITORS FOR THE TREATMENT OF UROTHELIAL CARCINOMA” (Janssen Pharmaceutica NV, priority 2019, published 2022).
# Conditions: 10 mg intermittent, regimen 1 (n = 33)
# Protocol: Study treatment was administered on 28-day cycles. Prior to interim analysis 1, there were 2 treatment regimens. Patients were randomized 1:1 to 28-day cycles to the following 2 regimens until a regimen was selected for further study: Regimen 1 (10 mg once daily intermittent (7 days on/7 days); Regimen 2 (6 mg once daily continuous). Randomization was stratified according to performance status (0 to 1 vs. 2), hemoglobin value (<10 vs. ≥10 g per dl), FGFR alteration type (mutation vs. fusion), prior treatment status (chemotherapy-resistant vs. chemotherapy naïve), and disease distribution (presence or absence of visceral [liver, lung, bone] metastases). Starting dose selection was based on phase 1 efficacy and tolerability.
# Thus, after interim analysis, this became a single-arm study. […] Treatment continued until disease progression or unacceptable adverse event(s) per investigator.
# All objective responses required confirmation by an additional investigator assessment within 4 to 6 weeks of first assessment. Disease evaluations for regimen 3 were also performed by an independent radiographic review committee. […] Safety was evaluated based on clinical laboratory tests, physical exams, electrocardiograms, and ophthalmology examinations. Adverse events and abnormalities were assessed by investigator and graded per NCI CTCAE v.4.0
# Prophylactic measures were taken to minimize risk of common adverse events related to FGFR inhibition. To reduce risk of hyperphosphatemia, a low-phosphate diet was recommended for all patients (600 to 800 mg of dietary phosphate intake per day). To reduce the risk of skin effects, the application of alcohol-free emollient moisturizing cream and avoidance of unnecessary exposure to sunlight, soap, perfumed products, and hot baths was recommended. Patients were asked to keep their fingers and toes clean and nails trimmed to reduce risk of nail effects.
# Additional ophthalmology examinations were performed if clinically indicated.
structure (smiles),measurement,value
"COc1cc(OC)cc(N(CCNC(C)C)c2ccc3ncc(-c4cnn(C)c4)nc3c2)c1 [erdafitinib, N-(3,5-dimethoxy-phenyl)-N′-(1-methylethyl)-N-[3-(1-methyl-1H-pyrazol-4-yl)quinoxalin-6-yl]ethane-1,2-diamine]","Patients with Abdominal pain, Grade 1",2 (6) no. (%)
same,"Patients with Abdominal pain, Grade 2",2 (6) no. (%)
same,"Patients with Abdominal pain, Grade ≥3",1 (3) no. (%)
same,"Patients with Alanine aminotransferase increased, Any grade",1 (3) no. (%)
same,"Patients with Alanine aminotransferase increased, Grade 1",0 no. (%)
same,"Patients with Alanine aminotransferase increased, Grade 2",1 (3) no. (%)
same,"Patients with Alanine aminotransferase increased, Grade ≥3",0 no. (%)
same,"Patients with Alopecia, Any grade",4 (12) no. (%)
same,"Patients with Alopecia, Grade 1",2 (6) no. (%)
same,"Patients with Alopecia, Grade 2",2 (6) no. (%)
same,"Patients with Alopecia, Grade ≥3",0 no. (%)
same,"Patients with Anemia, Any grade",8 (24) no. (%)
same,"Patients with Anemia, Grade 1",1 (3) no. (%)
same,"Patients with Anemia, Grade 2",1 (3) no. (%)
same,"Patients with Anemia, Grade ≥3",6 (18) no. (%)
same,"Patients with Arthralgia, Any grade",7 (21) no. (%)
same,"Patients with Arthralgia, Grade 1",3 (9) no. (%)
same,"Patients with Arthralgia, Grade 2",2 (6) no. (%)
same,"Patients with Arthralgia, Grade ≥3",2 (6) no. (%)
same,"Patients with Aspartate aminotransferase increased, Any grade",2 (6) no. (%)
same,"Patients with Aspartate aminotransferase increased, Grade 1",2 (6) no. (%)
same,"Patients with Aspartate aminotransferase increased, Grade 2",0 no. (%)
same,"Patients with Aspartate aminotransferase increased, Grade ≥3",0 no. (%)
same,"Patients with Asthenia, Any grade",10 (30) no. (%)
same,"Patients with Asthenia, Grade 1",5 (15) no. (%)
same,"Patients with Asthenia, Grade 2",3 (9) no. (%)
same,"Patients with Asthenia, Grade ≥3",2 (6) no. (%)
same,"Patients with Back pain, Any grade",5 (15) no. (%)
same,"Patients with Back pain, Grade 1",1 (3) no. (%)
same,"Patients with Back pain, Grade 2",1 (3) no. (%)
same,"Patients with Back pain, Grade ≥3",3 (9) no. (%)
same,"Patients with Blood creatinine increased, Any grade",4 (12) no. (%)
same,"Patients with Blood creatinine increased, Grade 1",3 (9) no. (%)
same,"Patients with Blood creatinine increased, Grade 2",1 (3) no. (%)
same,"Patients with Blood creatinine increased, Grade ≥3",0 no. (%)
same,"Patients with Conjunctivitis, Any grade",4 (12) no. (%)
same,"Patients with Conjunctivitis, Grade 1",3 (9) no. (%)
same,"Patients with Conjunctivitis, Grade 2",1 (3) no. (%)
same,"Patients with Conjunctivitis, Grade ≥3",0 no. (%)
same,"Patients with Constipation, Any grade",14 (42) no. (%)
same,"Patients with Constipation, Grade 1",8 (24) no. (%)
same,"Patients with Constipation, Grade 2",6 (18) no. (%)
same,"Patients with Constipation, Grade ≥3",0 no. (%)
same,"Patients with Decreased appetite, Any grade",11 (33) no. (%)
same,"Patients with Decreased appetite, Grade 1",4 (12) no. (%)
same,"Patients with Decreased appetite, Grade 2",6 (18) no. (%)
same,"Patients with Decreased appetite, Grade ≥3",1 (3) no. (%)
same,"Patients with Diarrhea, Any grade",14 (42) no. (%)
same,"Patients with Diarrhea, Grade 1",7 (21) no. (%)
same,"Patients with Diarrhea, Grade 2",6 (18) no. (%)
same,"Patients with Diarrhea, Grade ≥3",1 (3) no. (%)
same,"Patients with Dry eye, Any grade",3 (9) no. (%)
same,"Patients with Dry eye, Grade 1",2 (6) no. (%)
same,"Patients with Dry eye, Grade 2",1 (3) no. (%)
same,"Patients with Dry eye, Grade ≥3",0 no. (%)
same,"Patients with Dry mouth, Any grade",16 (48) no. (%)
same,"Patients with Dry mouth, Grade 1",15 (46) no. (%)
same,"Patients with Dry mouth, Grade 2",1 (3) no. (%)
same,"Patients with Dry mouth, Grade ≥3",0 no. (%)
same,"Patients with Dry skin, Any grade",9 (27) no. (%)
same,"Patients with Dry skin, Grade 1",8 (24) no. (%)
same,"Patients with Dry skin, Grade 2",1 (3) no. (%)
same,"Patients with Dry skin, Grade ≥3",0 no. (%)
same,"Patients with Dysgeusia, Any grade",10 (30) no. (%)
same,"Patients with Dysgeusia, Grade 1",7 (21) no. (%)
same,"Patients with Dysgeusia, Grade 2",3 (9) no. (%)
same,"Patients with Dysgeusia, Grade ≥3",0 no. (%)
same,"Patients with Dyspepsia, Any grade",3 (9) no. (%)
same,"Patients with Dyspepsia, Grade 1",2 (6) no. (%)
same,"Patients with Dyspepsia, Grade 2",1 (3) no. (%)
same,"Patients with Dyspepsia, Grade ≥3",0 no. (%)
same,"Patients with Dyspnea, Any grade",8 (24) no. (%)
same,"Patients with Dyspnea, Grade 1",3 (9) no. (%)
same,"Patients with Dyspnea, Grade 2",2 (6) no. (%)
same,"Patients with Dyspnea, Grade ≥3",3 (9) no. (%)
same,"Patients with Fatigue, Any grade",6 (18) no. (%)
same,"Patients with Fatigue, Grade 1",4 (12) no. (%)
same,"Patients with Fatigue, Grade 2",2 (6) no. (%)
same,"Patients with Fatigue, Grade ≥3",0 no. (%)
same,"Patients with Hand-foot syndrome, Any grade",2 (6) no. (%)
same,"Patients with Hand-foot syndrome, Grade 1",0 no. (%)
same,"Patients with Hand-foot syndrome, Grade 2",2 (6) no. (%)
same,"Patients with Hand-foot syndrome, Grade ≥3",0 no. (%)
same,"Patients with Hematuria, Any grade",3 (9) no. (%)
same,"Patients with Hematuria, Grade 1",1 (3) no. (%)
same,"Patients with Hematuria, Grade 2",2 (6) no. (%)
